Experimental data as given in patent publication US4349378A, “Compounds useful as pesticides” (FBC Limited, priority 1978, dated 1982).

Key:
Tomato = test: (II) surface spray, growth regulatory or herbicidal effects; assay type: in vivo, Lycopersicon esculentum; conditions: 21 days, 100=complete suppression
Text: (§1) (II) An aqueous suspension together with 1000 ppm of the wetting agent Lissapol NX. The surfaces of an additional set of pans with seeds already sown were then sprayed with 2.8 or 1.4 kg/ha in 450 liters/hectare, and the pans kept in the controlled environment room for 21 days.
(§2) The plants were then visually assessed for any growth regulatory or herbicidal effects. All differences from an untreated control were scored on a scale from 0-100, where 0 signifies no effect and 100 signifies complete suppression.
(§3) The results are shown in the following table where I stands for soil incorporation and II for surface spray.

Barley = test: as above; assay type: in vivo, Hordeum vulgare; conditions: 21 days, 100=complete suppression
Text: as §1, §2, §3

Cotton = test: as above; assay type: in vivo, Gossypium sp.; conditions: 21 days, 100=complete suppression
Text: as §1, §2, §3

Carrot = test: as above; assay type: in vivo, Daucus carota; conditions: 21 days, 100=complete suppression
Text: as §1, §2, §3

Wheat = test: as above; assay type: in vivo, Triticum aestivum; conditions: 21 days, 100=complete suppression
Text: as §1, §2, §3

Barnyard Grass = test: as above; assay type: in vivo, Echinochloa crus-galli; conditions: II surface spray 1.4 kg/ha (line 3.25 ppm), 21 days, 100=complete suppression
Text: as §1, §2, §3

Rice = test: as above; assay type: in vivo, Oryza sativa; conditions: 21 days, 100=complete suppression
Text: as §1, §2, §3

Chickweed = test: (I) soil incorporation, growth regulatory or herbicidal effects; assay type: in vivo, Stellaria media; conditions: I soil incorporation 6.5 ppm, 21 days, 100=complete suppression
Text: (§4) (I) an attaclay/sand dust and incorporated in John Innes I potting compost at a rate equivalent to 6.5 and 3.25 parts per million weight/volume of active ingredient to soil and placed in anodised aluminium pans, 19 cm long×9.5 cm wide×5.0 cm high. This is approximately equivalent to a surface application of 2.8 and 1.4 kg active ingredient per hectare cultivated to a depth of 5 cm. Seeds of the species listed below were sown in the treated soil, one species per pan, watered and placed in a controlled environment room (22° C.; 65-85% relative humidity and 14 hours artificial illumination at 17000 lux) for 21 days.
as §2, §3

Fathen = test: as above; assay type: in vivo, Chenopodium album; conditions: I soil incorporation 6.5 ppm, 21 days, 100=complete suppression
Text: as §4, §2, §3

acetylcholinesterase = test: standard test indicative of insecticidal activity, inhibition of acetylcholinesterase; assay type: biochemical; conditions: 100 micromolar
Xanthomonas malvacearum = test: bacteriostatic test in dextrose nutrient broth; assay type: cell-based; conditions: 1,000 and 200 ppm weight/volume; 8 days at 25° C.
Description: A 1% suspension/solution of the product of Example 157 in polyethylene glycol (Carbowax 400) was added to a dextrose nutrient broth to give a concentration of 1,000 parts per million (ppm) weight/volume of medium. Dilution in test tubes was then carried out to give a concentration of 200 ppm weight/volume of medium. To 8 ml quantities of broth was added 0.2 ml of a dense broth culture of the bacterium causing black arm of cotton, Xanthomonas malvacearum. After 8 days incubation at 25° C., all the broth specimens were examined for signs of bacterial growth.

[1] = II surface spray 1.4 kg/ha (line 3.25 ppm)
[2] = II surface spray 2.8 kg/ha (line 6.5 ppm)

| SMILES | growth regulatory or herbicidal effect score (Tomato; [1]) | growth regulatory or herbicidal effect score (Tomato; [2]) | growth regulatory or herbicidal effect score (Barley; [1]) | growth regulatory or herbicidal effect score (Barley; [2]) | growth regulatory or herbicidal effect score (Cotton; [1]) | growth regulatory or herbicidal effect score (Cotton; [2]) | growth regulatory or herbicidal effect score (Carrot; [1]) | growth regulatory or herbicidal effect score (Carrot; [2]) | growth regulatory or herbicidal effect score (Wheat; [1]) | growth regulatory or herbicidal effect score (Wheat; [2]) | growth regulatory or herbicidal effect score (Barnyard Grass) | growth regulatory or herbicidal effect score (Rice; [1]) | growth regulatory or herbicidal effect score (Rice; [2]) | growth regulatory or herbicidal effect score (Chickweed) | growth regulatory or herbicidal effect score (Fathen) | inhibition of acetylcholinesterase (acetylcholinesterase) [%] | bacterial growth (Xanthomonas malvacearum) |
| --- | --- | --- | --- | --- | --- | --- | --- | --- | --- | --- | --- | --- | --- | --- | --- | --- | --- |
| CCS(=O)(=O)N(CC#N)c1ccc(Cl)c(Cl)c1 [Example 137] | 0 | 0 | 0 | 0 | 0 | 0 | 0 | 0 | 0 | 0 | 90 | 0 | 0 |  |  |  |  |
| CCOC(=O)C(CC)N(c1c(C)cccc1C)S(C)(=O)=O (centres unmarked) [Example 95] |  |  |  |  |  |  |  |  |  |  |  |  |  | 90 | 100 |  |  |
| Cc1ccc(N(CC(N)=S)S(C)(=O)=O)cc1Cl [Example 150] | 0 | 0 | 0 | 0 | 0 | 0 |  |  | 0 | 0 |  | 0 | 0 |  |  |  |  |
| CNC(=O)ON=C(C)CN(c1c(C)cccc1C)S(C)(=O)=O [Example 248, N-[2-(methylcarbamoyloxyimino)propyl]-2',6'-dimethylmethanesulphonanilide] |  |  |  |  |  |  |  |  |  |  |  |  |  |  |  | 30 |  |
| CCS(=O)(=O)N(CC(N)=S)c1ccc(Cl)c(Cl)c1 [Example 156] | 0 | 0 | 0 | 0 | 0 | 0 |  |  | 0 | 0 |  | 0 | 0 |  |  |  |  |
| CS(=O)(=O)N(CC(N)=S)c1cccc(Cl)c1Cl [Example 157] |  |  |  |  |  |  |  |  |  |  |  |  |  |  |  |  | No growth |
| CS(=O)(=O)N(CC(N)=S)c1ccc(Cl)c(Cl)c1 [Example 85, N-(thiocarbamoylmethyl)-3,4-dichloromethanesulphonanilide] | 0 | 0 | 0 | 0 | 0 | 0 | 0 | 0 | 0 | 0 | 90 | 0 | 0 |  |  |  |  |
| Cc1ccc(N(CC#N)S(C)(=O)=O)cc1Cl [Example 131] | 0 | 0 | 0 | 0 | 0 | 0 | 0 | 0 | 0 | 0 |  | 0 | 0 |  |  |  |  |
